# Experimental data published in US20250214977A1, “STAT6 INHIBITORS AND USES THEREOF” (Kymera Therapeutics, Inc., priority 2024, published 2025).
# pIC50: −log10 of the molar value.
# Tested on: Phosphorylation of STAT6 in human PBMC (CD19+ B cells)
# Test: Phosphorylated STAT6 (pSTAT6) flow cytometry assay in human PBMC, IL-4 stimulated
# Type: cell-based
# Details: compound 1 hour, 1 ng/ml IL-4 for 15 minutes, read-out: STAT6 IL4 pSTAT6 assay in PBMC: Average IC50
# Outline: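 Human PBMC preincubated 1 h at 37 °C with compound (9-point 1:3 series, top up to 30 μM), then stimulated with 1 ng/ml IL-4 for 15 min. After fixation, methanol permeabilization and staining, pSTAT6 quantified in CD19+ B cells by flow cytometry; four-parameter fit of inhibition.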
row,SMILES,pIC50
1,CN(C)C(=O)c1cc2ccc(C3=CCCN(C(=O)C4(O)CCN(Cc5ccccc5)CC4)C3)cc2[nH]1 [Example I-98],4.00 to 5.00
2,CN(C)C(=O)c1cc2ccc(C3=CCCN(C(=O)CCN4CCOC4=O)C3)cc2[nH]1 [Example I-134],< 4.00
3,CN(C)C(=O)c1cc2cc(C3=CCCN(C(=O)Cc4ccncn4)C3)ccc2o1 [Example I-270],< 4.00
4,Cc1cn(CCC(=O)N2CCC=C(c3ccc4cc(C(=O)N(C)C)[nH]c4c3)C2)nn1 [Example I-319],< 4.00
5,CC(=O)N1Cc2ccccc2CC1C(=O)N1CCC=C(c2ccc3oc(C(=O)N(C)C)cc3c2)C1 (stereo not drawn) [Example I-182],< 4.00
6,CN(C)C(=O)c1cc2cc(C3=CCCN(C(=O)CCn4ccnn4)C3)cnc2s1 [Example I-244],< 4.00
7,CCNC(Cn1ccnn1)C(=O)N1CCC=C(c2ccc3oc(C(=O)N(C)C)cc3c2)C1 (stereo not drawn) [Example I-153],< 4.00
8,CC(=O)N1CCN(c2cc(C3=CCCN(C(=O)CCn4ccnn4)C3)cc3cc(C(=O)N(C)C)oc23)CC1 [Example I-207],< 4.00
9,CN(C)C(=O)c1cc2ccc(C3=CCCN(C(=O)CN4CCOC4=O)C3)cc2[nH]1 [Example I-42],4.00 to 5.00
10,CN(C)C(=O)c1cc2cc(C3=CCCN(C(=O)C4Cc5ccccc5CN4C=O)C3)ccc2[nH]1 (stereo not drawn) [Example I-201],< 4.00
11,CN(C)C(=O)c1cc2cc(C3=CCCN(C(=O)Cc4ccc5c(c4)OCCO5)C3)ccc2o1 [Example I-306],< 4.00
12,CN(C)C(=O)c1cc2ccc(C3=CCCN(C(=O)[C@@H](N)Cc4cccc(F)c4)C3)cc2[nH]1 [Example I-65],< 4.00
13,CN(C)C(=O)c1cc2cc(C3=CCCN(C(=O)CCn4nnc5ccccc54)C3)ccc2o1 [Example I-217],< 4.00
14,CN(C)C(=O)c1cc2ccc(C3=CCCN(C(=O)C4CC4F)C3)cc2[nH]1 (stereo not drawn) [Example I-26],< 4.00
15,CN(C)C(=O)c1cc2ccc(C3=CCCN(C(=O)c4ccnnc4O)C3)cc2[nH]1 [Example I-146],< 4.00
16,CN(C)C(=O)c1cc2cc(C3CCCN(C(=O)CCn4ccnn4)C3)ccc2o1 (stereo not drawn) [Example I-305],< 4.00
17,CN(C)C(=O)c1cc2ccc(C3=CCCN(C(=O)CCc4ccccc4C#N)C3)cc2[nH]1 [Example I-64],< 4.00
18,CN(C)C(=O)c1cc2cc(C3=CCCN(C(=O)CCc4c[nH]c5ccccc45)C3)ccc2o1 [Example I-300],< 4.00
19,CN(C)C(=O)c1cc2cc(C3=CCCN(C(=O)CCn4ccnn4)C3)cc(CN3CCNCC3)c2o1 [Example I-167],< 4.00

row,SMILES,pIC50
1,CN(C)C(=O)c1cc2cc(C3=CCCN(C(=O)C4Cc5c(cccc5-c5ccc(O)cc5)CN4C=O)C3)ccc2o1 (stereo not drawn) [Example I-187],< 4.00
2,COc1ccc(CC(=O)N2CCC=C(c3ccc4oc(C(=O)N(C)C)cc4c3)C2)cc1C#N [Example I-256],< 4.00
3,CN(C)C(=O)c1cc2cc(C3=CCCN(C(=O)CCn4ccc5ccccc54)C3)ccc2o1 [Example I-264],< 4.00
4,CN(C)C(=O)c1cc2ccc(C3=CCCN(C(=O)C4CN(Cc5ccccc5)CCO4)C3)cc2[nH]1 (stereo not drawn) [Example I-100],4.00 to 5.00
5,CCOC(=O)N(CC(=O)N1CCC=C(c2ccc3cc(C(=O)N(C)C)[nH]c3c2)C1)Cc1ccco1 [Example I-81],< 4.00
6,Cc1cnnn1CCC(=O)N1CCC=C(c2ccc3cc(C(=O)N(C)C)[nH]c3c2)C1 [Example I-12],4.00 to 5.00
7,CN(C)C(=O)c1cc2ccc(C3=CCCN(C(=O)c4ccc(O)c(F)c4)C3)cc2[nH]1 [Example I-48],4.00 to 5.00
8,CN(C)C(=O)c1cc2ccc(C3=CCCN(C(=O)CN4C(=O)COc5ccccc54)C3)cc2[nH]1 [Example I-79],4.00 to 5.00
9,CN(C)C(=O)c1cc2cc(C3=CCCN(C(=O)Cc4c[nH]c5ncccc45)C3)ccc2o1 [Example I-309],< 4.00
10,CN(C)C(=O)c1cc2ccc(C3=CCCN(C(=O)CCc4nnco4)C3)cc2[nH]1 [Example I-18],< 4.00
11,Cc1nc(CC(=O)N2CCC=C(c3ccc4cc(C(=O)N(C)C)[nH]c4c3)C2)no1 [Example I-41],4.00 to 5.00
12,CN(C)C(=O)c1cc2ccc(C3=CCCN(S(=O)(=O)Cc4cccnn4)C3)cc2[nH]1 [Example I-16],< 4.00
13,CN(C)C(=O)c1cc2cc(C3=CCCN(C(=O)CCc4cccs4)C3)ccc2o1 [Example I-299],< 4.00
14,CN(C)C(=O)c1cc2ccc(C3=CCCN(C(=O)CCn4ccnn4)C3)cc2s1 [Example I-269],4.00 to 5.00
15,CN(C)C(=O)c1cc2cc(C3=CCCN(C(=O)CCc4ccccc4)C3)ccc2o1 [Example I-312],< 4.00
16,CNC1(C(=O)N2CCC=C(c3ccc4oc(C(=O)N(C)C)cc4c3)C2)CCc2ccccc2C1 (stereo not drawn) [Example I-5],4.00 to 5.00
17,CN(C)C(=O)c1cc2cc(C3=CCCN(C(=O)Cc4cnc5ccccn45)C3)ccc2o1 [Example I-276],< 4.00
18,CN(C)C(=O)c1cc2ccc(C3=CCCN(C(=O)C4NCCc5ccccc54)C3)cc2[nH]1 (stereo not drawn) [Example I-60],< 4.00
19,CN(C)C(=O)c1cc2ccc(C3=CCCN(C(=O)c4cc5occc5n4-c4ccccc4)C3)cc2[nH]1 [Example I-102],4.00 to 5.00

row,SMILES,pIC50
1,CN(C)C(=O)c1cc2ccc(C3=CCCN(C(=O)c4ccccc4-c4ccccc4C(=O)O)C3)cc2[nH]1 [Example I-105],4.00 to 5.00
2,CN(C)C(=O)c1cc2ccc(C3=CCCN(C(=O)Cn4ccnn4)C3)cc2[nH]1 [Example I-37],4.00 to 5.00
3,CN(C)C(=O)c1cc2ccc(C3=CCCN(C(=O)c4cccnc4CS(C)(=O)=O)C3)cc2[nH]1 [Example I-69],< 4.00
4,CN(C)C(=O)c1cc2cc(C3=CCCN(C(=O)Cc4nc5ccccc5[nH]4)C3)ccc2o1 [Example I-245],< 4.00
5,CN(C)C(=O)c1cc2cc(C3=CCCN(C(=O)Cc4ccc5ncccc5c4)C3)ccc2o1 [Example I-273],< 4.00
6,CN(C)C(=O)c1cc2ccc(C3=CCCN(C(=O)Cn4cncn4)C3)cc2[nH]1 [Example I-36],4.00 to 5.00
7,"C[C@H]1CCCCN1C(=O)c1cc2ccc(C3=CCCN(C(=O)CCn4ccnn4)C3)cc2[nH]1 (single isomer, unassigned) [Example I-129]",< 4.00
8,CN(C)C(=O)c1cc2ccc(C3=CCCN(C(=O)C4CC(=O)N(Cc5ccccc5)C4)C3)cc2[nH]1 (stereo not drawn) [Example I-88],4.00 to 5.00
9,CN(C)C(=O)c1cc2cc(C3=CCCN(C(=O)Cc4nc5ccccc5o4)C3)ccc2o1 [Example I-292],< 4.00
10,CN(C)C(=O)c1cc2cc(C3=CCCN(C(=O)Cc4cncnc4)C3)ccc2o1 [Example I-293],< 4.00
11,CN(C)C(=O)c1cc2cc(C3=CCCN(C(=O)Cn4ccc5ccccc54)C3)ccc2o1 [Example I-274],< 4.00
12,COC(=O)C1CCC(c2ccc3oc(C(=O)N(C)C)cc3c2)CN1C(=O)CCn1ccnn1 (stereo not drawn) [Example I-150],< 4.00
13,CN(C)C(=O)c1cc2cc(C3=CCCN(C(=O)Cc4ccc5ccccc5c4)C3)ccc2o1 [Example I-295],< 4.00
14,CN(C)C(=O)c1cc2cc(C3=CCCN(C(=O)Cc4ncccn4)C3)ccc2o1 [Example I-249],< 4.00
15,CN(C)C(=O)c1cc2cc(C3=CCCN(C(=O)CCc4cn5cccnc5n4)C3)ccc2o1 [Example I-281],< 4.00
16,CN(C)C(=O)c1nc2ccc(C3=CCCN(C(=O)C4Cc5ccccc5CN4C=O)C3)cc2[nH]1 (stereo not drawn) [Example I-198],< 4.00
17,CN(C)C(=O)c1cc2cc(C3=CCCN(C(=O)CCc4ccncc4)C3)ccc2o1 [Example I-313],< 4.00
18,CN(C)C(=O)c1cc2ccc(C3=CCCN(C(=O)c4cnn(C)c4C(F)(F)F)C3)cc2[nH]1 [Example I-62],4.00 to 5.00
19,"CN(C)C(=O)c1cc2cc([C@H]3CC[C@H](CO)N(C(=O)CCn4ccnn4)C3)ccc2o1 (single isomer, unassigned) [Example I-157]",< 4.00
